Legend:
[1] = organism: Rattus norvegicus; assay: Displacement of [125I]-triiodothyronine from thyroid hormone receptor in rat liver membrane homogenates assessed as relative T3 displacement incubated for 18 hrs by scintillation counting method relative to control; assay type: cell membranes
[2] = organism: Rattus norvegicus; assay: Displacement of [125I]-triiodothyronine from thyroid hormone receptor in rat liver membrane homogenates incubated for 18 hrs by scintillation counting method; assay type: cell membranes; parameters: concentration or dose not given beside the values; settings: concentration not given here

Row | SMILES | relative binding affinity (RBA) [1] | inhibition [2] [%]
1 | Oc1c(Br)cc(CCc2cccc(F)c2)cc1Br | 0.19 | 19
2 | Oc1c(Br)cc(CCc2c(F)cccc2F)cc1Br | 0.61 | 61
3 | COc1cccc(/C=C/c2cc(Br)c(N)c(Br)c2)c1 | 0.01 | 1
4 | COc1ccccc1CCc1cc(Br)c(O)c(Br)c1 | 0 | 0
5 | Nc1ccc(/C=C/c2cc(Br)c(N)c(Br)c2)cc1 | 0 | 0
6 | COc1ccccc1/C=C/c1cc(Br)c(O)c(Br)c1 | 0.32 | 32
7 | Cc1cc(CCc2c(Cl)cccc2Cl)cc(C)c1O | 0.4 | 40
8 | O=[N+]([O-])c1ccccc1CCc1cc(Br)c(O)c(Br)c1 | 0.03 | 3
9 | Cc1cc(Oc2cccc3oc4ccccc4c23)cc(C)c1O | 0 | 0
10 | Oc1c(Br)cc(/C=C/c2cccc(I)c2)cc1Br | 0.45 | 45
11 | Oc1ccc(/C=C/c2cc(Br)c(O)c(Br)c2)cc1 | 0.5 | 50
12 | COc1cccc(OC)c1/C=C/c1cc(Br)c(N)c(Br)c1 | 0.02 | 2
13 | O=C(O)c1ccc2nc(-c3cc(Cl)cc(Cl)c3)oc2c1 | 0 | 0
14 | Cc1cc(-c2cccc3oc4ccccc4c23)cc(C)c1O | 0 | 0
15 | Brc1cc(Br)cc(Oc2cccc3oc4ccccc4c23)c1 | 0 | 0
16 | Cc1cc(-c2nc3c([N+](=O)[O-])cccc3o2)cc(C)c1O | 0.16 | 16
17 | Oc1c(Br)cc(CCc2ccccc2C(F)(F)F)cc1Br | 0.08 | 8
18 | Oc1cc(O)cc(/C=C/c2cc(Br)c(O)c(Br)c2)c1 | 0.66 | 66
19 | O=[N+]([O-])c1ccccc1/C=C/c1cc(Br)c(O)c(Br)c1 | 0.21 | 21
20 | O=[N+]([O-])c1ccccc1S(=O)(=O)Nc1cc(Cl)c(O)c(Cl)c1 | 0.07 | 7
21 | Oc1c(Br)cc(NCc2ccccc2)cc1Br | 0.02 | 2
22 | Nc1ccccc1/C=C/c1cc(Br)c(O)c(Br)c1 | 0.15 | 15

Row | SMILES | relative binding affinity (RBA) [1] | inhibition [2] [%]
23 | Nc1cccc(/C=C/c2cc(Br)c(O)c(Br)c2)c1 | 0 | 0
24 | COc1cccc(CCc2cc(Br)c(O)c(Br)c2)c1 | 0.05 | 5
25 | Cc1cc(C)cc(Oc2cccc3oc4ccccc4c23)c1 | 0 | 0
26 | Oc1c(Br)cc(Oc2cccc3oc4ccccc4c23)cc1Br | 0.94 | 94
27 | Clc1cccc(Cl)c1/C=C/c1cc(Br)cc(Br)c1 | 0.13 | 13
28 | Cc1cc(/C=C/c2c(Cl)cccc2Cl)cc(C)c1O | 0.41 | 41
29 | Cc1cc(C)cc(-c2cccc3oc4ccccc4c23)c1 | 0.02 | 2
30 | COc1cccc(/C=C/c2cc(Br)c(O)c(Br)c2)c1 | 0 | 0
31 | Oc1c(I)cc(/C=C/c2c(Cl)cccc2Cl)cc1I | 0.92 | 92
32 | Oc1c(Br)cc(-c2cccc3oc4ccccc4c23)cc1Br | 0.36 | 36
33 | Oc1c(Br)cc(/C=C/c2c(Cl)cccc2Cl)cc1Br | 0.7 | 70
34 | COc1ccccc1C(=O)Nc1cc(Br)cc(Br)c1 | 0.1 | 10
35 | Cc1ccccc1/C=C/c1cc(Br)c(O)c(Br)c1 | 0.44 | 44
36 | O=C(O)c1ccc(C(=O)Nc2cc(Br)cc(Br)c2)cc1 | 0.13 | 13
37 | Oc1c(Br)cc(-c2nc3cccc(Cl)c3o2)cc1Br | 0.62 | 62
38 | Oc1cccc(/C=C/c2cc(Br)c(O)c(Br)c2)c1 | 0.64 | 64
39 | Oc1c(Br)cc(/C=C/c2ccccc2Br)cc1Br | 0.69 | 69
40 | Cc1cc(C)cc(Nc2cccc3oc4ccccc4c23)c1 | 0 | 0
41 | Oc1c(I)cc(-c2nc3cccc(Cl)c3o2)cc1I | 0.92 | 92
42 | Oc1c(Br)cc(/C=C/c2ccc(F)cc2)cc1Br | 0.4 | 40
43 | Oc1c(Br)cc(/C=C/c2ccccc2C(F)(F)F)cc1Br | 0.69 | 69
44 | Oc1c(Br)cc(/C=C/c2ccccc2I)cc1Br | 0.55 | 55

Row | SMILES | relative binding affinity (RBA) [1] | inhibition [2] [%]
45 | Nc1cccc(CCc2cc(Br)c(O)c(Br)c2)c1 | 0 | 0
46 | Oc1ccccc1/C=C/c1cc(Br)c(O)c(Br)c1 | 0.22 | 22
47 | COc1ccccc1NC(=O)Nc1cc(Br)c(O)c(Br)c1 | 0.14 | 14
48 | COc1ccc(/C=C/c2cc(Br)c(O)c(Br)c2)cc1 | 0.16 | 16
49 | COc1cccc(OC)c1/C=C/c1cc(Br)c(O)c(Br)c1 | 0 | 0
50 | Cc1cccc(CCc2cc(Br)c(O)c(Br)c2)c1 | 0.04 | 4
51 | Cc1cccc(C)c1/C=C/c1cc(Br)c(O)c(Br)c1 | 0.42 | 42
52 | Brc1cc(Br)cc(-c2cccc3oc4ccccc4c23)c1 | 0 | 0
53 | Nc1ccc(/C=C/c2cc(Br)c(O)c(Br)c2)cc1 | 0 | 0
54 | Cc1cccc(/C=C/c2cc(Br)c(O)c(Br)c2)c1 | 0.35 | 35
55 | Nc1cccc(/C=C/c2cc(Br)c(N)c(Br)c2)c1 | 0.03 | 3
56 | Nc1ccc(CCc2cc(Br)c(O)c(Br)c2)cc1 | 0 | 0
57 | Cc1cc(-c2cc(C)c(O)c(C)c2)cc(C)c1O | 0.11 | 11
58 | COc1cccc(OC)c1CCc1cc(Br)c(O)c(Br)c1 | 0 | 0
59 | Cc1cccc(C)c1CCc1cc(Br)c(O)c(Br)c1 | 0.12 | 12
60 | O=[N+]([O-])c1ccccc1COc1cc(Br)cc(Br)c1 | 0 | 0
61 | Oc1c(Br)cc(CCc2c(Cl)cccc2Cl)cc1Br | 0.45 | 45
62 | Clc1cccc(Cl)c1COc1cc(Br)cc(Br)c1 | 0.04 | 4
63 | Cc1cc(C)cc(/C=C/c2cc(Br)c(O)c(Br)c2)c1 | 0.2 | 20
64 | Oc1c(Br)cc(/C=C/c2c(Br)cccc2Br)cc1Br | 0.35 | 35

— ChEMBL document CHEMBL4052680, “Semi-quantitative models for identifying potent and selective transthyretin amyloidogenesis inhibitors” (Bioorg Med Chem Lett, 2017)
